From paper PMC3298469, “A selective and potent CXCR3 antagonist SCH 546738 attenuates the development of autoimmune diseases and delays graft rejection” (BMC Immunology, 2012)

Legend:
Lewis rats = experiment: rat experimental autoimmune encephalomyelitis; format: in vivo; settings: p.o. in 0.4% methylcellulose, varying doses; data not shown
Protocol: Male Lewis rats challenged by injection of 50 µl (30 mg) of a guinea pig spinal cord homogenate in CFA into one footpad. The animals were treated starting at day 0 and oral dosing continued throughout the 3-week disease course, with varying amounts of SCH 546738 in 0.4% methylcellulose (MC) p.o. Animals were scored for disease severity: 0, no clinical signs; 1, flaccid tail; 2, hind limb weakness; 3, complete hind limb paralysis; 4, complete hind limb paralysis, forelimb weakness or paralysis; 5, death.
For CIA and EAE models, unpaired t-tests were performed using GraphPad InStat version 5.0.1 for Windows 98, GraphPad Software, San Diego California USA (http://www.graphpad.com). Statistical significance was evaluated by comparing the vehicle-treated group with the experimental group using unpaired t-test. Differences were considered significant when p values were <0.05.
Experimental autoimmune encephalomyelitis (EAE) is an animal model for human MS and development of disease is dependent on T cell infiltration into the CNS. In the murine model of EAE, SCH 546738 was tested in combination with interferon-β (IFN-β), a current first-line therapeutic for the amelioration of relapsing-remitting MS. C57BL/6 mice were primed by intravenous injection of pertussis toxin on day 0 and day 2. […] Disease progression was monitored by a scoring system as described in Methods. […]

C57BL/6 mice = experiment: mouse experimental autoimmune encephalomyelitis (MOG35-55); format: in vivo
Protocol: Female C57BL/6 mice were purchased from Jackson Laboratory (Bar Harbor, ME). For immunization, 150 μg MOG35-55 peptide prepared by Princeton Biomolecules (Langhorne, PA, USA) and 300 μg killed Mycobacterium tuberculosis (Difco, Detroit, MI) were mixed in CFA (Sigma-Aldrich, St Louis, MO, USA) and injected s.c. in two 50-μl injections over the flanks on day 1. Also, 200 ng of pertussis toxin (Sigma-Aldrich, St Louis, MO) was injected i.v. on days 0 and 2. The compound was administered orally twice daily. Dosing with the compound started at day 0, 24 h prior to MOG35-55 immunization (day 1). Mice were monitored daily and assessed for clinical signs of disease in a blinded fashion according to the following criteria: 0, no signs of disease; 1, tail paralysis; 2, limp tail and hind limb weakness; 3, hind limb paralysis; 4, hind limb plus forelimb paralysis; and 5, moribund or dead. Cumulative clinical scores were calculated by adding daily scores from the day of immunization until the end of the experiment. Mean clinical scores at separate days and mean maximal scores were calculated by adding the scores of individual mice and dividing with the number of mice in each group, including mice not developing signs of EAE. […]

In the case of `CC[C@H]1CN(c2nc(N)c(C(N)=O)nc2Cl)CCN1C1CCN(Cc2ccc(Cl)cc2)CC1` [SCH 546738], the “effect on disease severity” value (Lewis rats) was “reduced the severity of the disease in a dose-dependent manner”, the “effect on disease onset and severity” value (C57BL/6 mice; 30 mpk orally twice daily, alone, days 17 and 19) was “delayed disease onset and attenuated disease severity” and the “effect on disease onset and severity, combination treatment” value (C57BL/6 mice; SCH 546738 30 mpk p.o. twice daily combined with IFN-β 1700 ng i.m. daily, compared to either alone) was “significant additive effect”.
